Results published in article PMC10678405, “2126. Safety, Tolerability, and Pharmacokinetics (PK) in Healthy Participants Following Single Dose Administration of Zosurabalpin, a Novel Pathogen-Specific Antibiotic for the Treatment of Serious Acinetobacter Infections” (Open Forum Infectious Diseases, 2023).
Where two headings read alike, the source gives them in different places.

Assays:
[1] = single IV dose; for dose proportionality of plasma exposures (Cmax and AUCinf): healthy participants
Text: (§1) Methods The entry-into-human study (BP41732) was a double-blind, placebo-controlled, randomized, single-and multiple ascending dose study in healthy participants. In Part 1 (SAD) of Study BP41732, participants were randomized 3:1 to receive IV zosurabalpin or placebo in sequential single ascending dose cohorts. The mass balance study (BP43532) was a non-randomized, non-controlled, open-label, single IV dose study in healthy male participants. […] Disclosures Andreas Guenther, PhD, F. Hoffmann-La Roche Ltd: Employee Amanda Messer, BPharm, Roche Products Ltd: Employee Mylène Giraudon, PharmD, F. Hoffmann-La Roche Ltd: Employee Katie Patel, MSc, Roche Products Limited: Employer|Roche Products Limited: Stocks/Bonds Erik J. Deurloo, MSc, F. Hoffmann-La Roche Ltd: Salary|F. Hoffmann-La Roche Ltd: Stocks/Bonds Michael Lobritz, MD, PhD, Roche: full time employee|Roche: full time employee

healthy participants = system: healthy participants
Text: as §1

[2] = healthy male participants, study BP43532, average
[3] = healthy participants, single IV dose 10 mg to 2000 mg

CN1C(=O)[C@H](CCCCN)NC(=O)[C@H](CCCN)NCc2cccnc2Sc2cccc(-c3ccc(C(=O)O)cc3)c2CNC(=O)[C@@H]1Cc1c[nH]c2ccccc12 [zosurabalpin, Zosurabalpin]
total [14C]-radioactivity recovered in feces, % of the administered dose [1, 2]: 48.0 % of the administered dose
total [14C]-radioactivity recovered in urine, % of the administered dose [1, 2]: 52.6 % of the administered dose
dose proportionality of plasma exposures (Cmax and AUCinf) ([1]; above 1000 mg up to 2000 mg): more than dose-proportionally
dose proportionality of plasma exposures (Cmax and AUCinf) ([1]; up to 1000 mg): increased approximately dose-proportionally
treatment-related infusion-related reactions (IRRs), participants affected / participants dosed (healthy participants; healthy male and female participants, single IV dose 10 mg to 2000 mg, studies BP41732 Part 1 (SAD) and BP43532, preliminary data): 9/64
changes in laboratory values, ECGs or vital signs compared to placebo (healthy participants; [3]): did not show any clinically significant changes
dose dependence of IRR occurrence (healthy participants; [3]): appeared to be dose-dependent
overall safety and tolerability (healthy participants; healthy participants, single IV doses of 10 mg to 2000 mg): safe and overall well tolerated
